The text below walks through data of US20110236359A1 (priority 2007, published 2011).

Holding throughout (assay): Antibiotic MIC plates (resistance profile)
Common to all, as to assay type: cell-based

The subject of assay [1] is Lactobacillus rhamnosus GG (ATCC 53103). The note with it: median of two repetitions. An excerpt:
(§1) The protocol was adapted from Delgado et al. (2005). Minimum Inhibitory Concentration (MIC) Plate (# GPN3F) and Anaerobe MIC Plate (# AN02B) were used to determine the antibiotic sensitivity and resistance profile of MM19 and MM33 according to the instructions of the manufacturer (Trek Diagnostic Systems; Nova Century, Burlington, ON, Canada).
(§2) Lactococcus lactis subsp. lactis MM19, Pediococcus acidilactici MM33 and Lactobacillus rhamnosus GG (ATCC 53103) from frozen glycerol stock were first inoculated in Lactobacilli MRS and incubated at 37° C. for 18 h. 100 μl of this culture were further incubated under the same conditions. This second culture was then inoculated on a MRS agar plate and incubated at 37° C. for 48 h under anaerobic conditions using GasPak Plus system (BD BBL, Sparks, Md., USA).

The subject of assay [2] is Lactococcus lactis subsp. lactis MM19. The settings on record: MM19, median of two repetitions.
From the text: as §1, §2

Assay [3] concerns Pediococcus acidilactici MM33. The note with it: median of two repetitions.
From the text: as §1, §2

[4] abbreviates: Lacticaseibacillus rhamnosus, ATCC53103, L. rhamnosus GG, ANO2 plate, read-out: MIC.
Setting [5] is: Lacticaseibacillus rhamnosus, ATCC53103, L. rhamnosus GG, GPN3F plate, read-out: MIC.
Setting [6] is: Lactococcus lactis, ANO2 plate, read-out: MIC.
Where [7] appears, read: Lactococcus lactis, GPN3F plate, read-out: MIC.
Where [8] appears, read: Pediococcus acidilactici, MM33, MM33, ANO2 plate, read-out: MIC.
[9] abbreviates: Pediococcus acidilactici, MM33, MM33, GPN3F plate, read-out: MIC.

Values after ≈ are worked out from the molar mass of the structure shown. Read-outs that look alike come from different tables or passages of the source.

As a reminder, the MIC is the lowest concentration found to suppress growth. Turning to `CC1(C)S[C@@H]2[C@H](NC(=O)[C@H](N)c3ccccc3)C(=O)N2[C@H]1C(=O)O` [AMP, Ampicillin], the MIC was 1 µg/mL (≈ 2.86 µM) in assay [1] (setting [4]); 1 µg/mL (≈ 2.86 µM) in assay [1] (setting [5]); under 0.5 µg/mL in assay [2] (setting [6]); 0.12 to 0.25 µg/mL (≈ 0.343 to 0.715 µM) in assay [2] (setting [7]); 4 µg/mL (≈ 11.4 µM) in assay [3] (setting [8]); 2 µg/mL (≈ 5.72 µM) in assay [3] (setting [9]).

On to `CO/N=C(\C(=O)N[C@@H]1C(=O)N2C(C(=O)O)=C(CSc3nc(=O)c(=O)[nH]n3C)CS[C@H]12)c1csc(N)n1` [AXO, Ceftriaxone], for which the minimal inhibitory concentration (MIC) in assay [1] (setting [5]) is 32 to 64 µg/mL (≈ 57.7 to 115 µM); in assay [2] (setting [7]), under 8 µg/mL; in assay [3] (setting [9]) it was 16 µg/mL (≈ 28.9 µM).

Regarding `O=C(N[C@H](CO)[C@H](O)c1ccc([N+](=O)[O-])cc1)C(Cl)Cl` [CHL, Chloramphenicol], the figures for the MIC in assay [1] (setting [4]), in assay [2] (setting [6]) and in assay [3] (setting [8]) were 8 µg/mL (≈ 24.8 µM), 4 µg/mL (≈ 12.4 µM) and 16 µg/mL (≈ 49.5 µM), respectively.

As for `O=C(O)c1cn(C2CC2)c2cc(N3CCNCC3)c(F)cc2c1=O` [CIP, Ciprofloxacin], the MIC in assay [1] (setting [5]) is 1 µg/mL (≈ 3.02 µM); in assay [2] (setting [7]) it was 2 µg/mL (≈ 6.04 µM).

Take `CCC[C@@H]1C[C@@H](C(=O)N[C@@H]([C@H]2O[C@H](SC)[C@H](O)[C@@H](O)[C@H]2O)[C@H](C)Cl)N(C)C1` [CLI, Clindamycin]: the MIC in assay [1] (setting [4]) was 0.5 µg/mL (≈ 1.18 µM); in assay [1] (setting [5]) it was under 0.12 µg/mL; in assay [2] (setting [6]), 0.5 µg/mL (≈ 1.18 µM); in assay [2] (setting [7]), 0.25 µg/mL (≈ 0.588 µM); in assay [3] (setting [8]), under 0.25 µg/mL; in assay [3] (setting [9]), under 0.12 µg/mL.

`CCCCCCCCCC(=O)N[C@@H](Cc1c[nH]c2ccccc12)C(=O)N[C@H](CC(N)=O)C(=O)N[C@@H](CC(=O)O)C(=O)N[C@@H]1C(=O)NCC(=O)N[C@@H](CCCN)C(=O)N[C@@H](CC(=O)O)C(=O)N[C@H](C)C(=O)N[C@@H](CC(=O)O)C(=O)NCC(=O)N[C@H](CO)C(=O)N[C@@H]([C@H](C)CC(=O)O)C(=O)N[C@@H](CC(=O)c2ccccc2N)C(=O)O[C@@H]1C` [DAP, Daptomycin]: the MIC in assay [1] (setting [5]) was 2 µg/mL (≈ 1.23 µM); in assay [2] (setting [7]), 0.5 to 1 µg/mL (≈ 0.309 to 0.617 µM); in assay [3] (setting [9]), 1 µg/mL (≈ 0.617 µM).

Turning to `CC[C@H]1OC(=O)[C@H](C)[C@@H](O[C@H]2C[C@@](C)(OC)[C@@H](O)[C@H](C)O2)[C@H](C)[C@@H](O[C@@H]2O[C@H](C)C[C@H](N(C)C)[C@H]2O)[C@](C)(O)C[C@@H](C)C(=O)[C@H](C)[C@@H](O)[C@]1(C)O` [ERY, Erythromycin], the minimum inhibitory concentration (MIC) in assay [1] (setting [5]), in assay [2] (setting [7]) and in assay [3] (setting [9]) was under 0.25 µg/mL throughout.

In the case of `CO[C@@]1(NC(=O)Cc2cccs2)C(=O)N2C(C(=O)O)=C(COC(N)=O)CS[C@@H]21` [FOX, Cefoxitin], the MIC in assay [1] (setting [4]), in assay [2] (setting [6]) and in assay [3] (setting [8]) was over 32 µg/mL throughout.

Consider `COc1c(N2CCNC(C)C2)c(F)cc2c(=O)c(C(=O)O)cn(C3CC3)c12` (stereo not shown) [GAT, Gatofloxacin], for which the minimum inhibitory concentration (MIC) in assay [1] (L. rhamnosus GG, GPN3F plate) was under 1 µg/mL; in assay [2] (GPN3F plate), under 1 µg/mL; in assay [3] (MM33, GPN3F plate), under 1 µg/mL.

Consider `C[C@@H](O)[C@H]1C(=O)N2C(C(=O)O)=C(SCCN=CN)C[C@H]12` [IMI, Imipenem], for which the MIC in assay [1] (setting [4]) came to 2 µg/mL (≈ 6.68 µM); in assay [2] (setting [6]) it was 0.25 µg/mL (≈ 0.835 µM); in assay [3] (setting [8]), 0.5 µg/mL (≈ 1.67 µM).

As for `C[C@H]1COc2c(N3CCN(C)CC3)c(F)cc3c(=O)c(C(=O)O)cn1c23` [LEVO, Levofloxacin], the MIC was 2 to 4 µg/mL (≈ 5.53 to 11.1 µM) in assay [1] (setting [5]), 0.5 µg/mL (≈ 1.38 µM) in assay [2] (setting [7]) and over 8 µg/mL in assay [3] (setting [9]).

Take `CC(=O)NC[C@H]1CN(c2ccc(N3CCOCC3)c(F)c2)C(=O)O1` [LZD, Linezolid]: the minimal inhibitory concentration (MIC) is 1 to 2 µg/mL (≈ 2.96 to 5.93 µM) in assay [1] (setting [5]), 2 µg/mL (≈ 5.93 µM) in assay [2] (setting [7]) and 4 to 8 µg/mL (≈ 11.9 to 23.7 µM) in assay [3] (setting [9]).

In the case of `C[C@@H](O)[C@H]1C(=O)N2C(C(=O)O)=C(S[C@@H]3CN[C@H](C(=O)N(C)C)C3)[C@H](C)[C@H]12` [MERO, Meropenem], the values for the MIC in assay [1] (setting [4]), in assay [2] (setting [6]) and in assay [3] (setting [8]) were 8 µg/mL (≈ 20.9 µM), under 0.5 µg/mL and 2 µg/mL (≈ 5.22 µM), respectively.

Turning to `CC1(C)S[C@@H]2[C@H](NC(=O)[C@H](NC(=O)N3CCN(S(C)(=O)=O)C3=O)c3ccccc3)C(=O)N2[C@H]1C(=O)O` [MEZ, Mezlocillin], the MIC is under 4 µg/mL in assay [1] (setting [4]), under 4 µg/mL in assay [2] (setting [6]) and 8 µg/mL (≈ 14.8 µM) in assay [3] (setting [8]).

For `Cc1ncc([N+](=O)[O-])n1CCO` [MRD, Metronidazole], the minimal inhibitory concentration (MIC) in assay [1] (setting [4]), in assay [2] (setting [6]) and in assay [3] (setting [8]) was over 16 µg/mL each time.

For `CCN1CCN(C(=O)N[C@@H](C(=O)N[C@@H]2C(=O)N3[C@@H]2SC(C)(C)[C@@H]3C(=O)O)c2ccccc2)C(=O)C1=O` [PIP, Piperacillin], the minimal inhibitory concentration (MIC) in assay [1] (setting [4]) is under 4 µg/mL; in assay [2] (setting [6]), under 4 µg/mL; in assay [3] (setting [8]), 8 µg/mL (≈ 15.5 µM).

On to `CO[C@H]1/C=C/O[C@@]2(C)Oc3c(C)c(O)c4c(O)c(c(/C=N/N5CCN(C)CC5)c(O)c4c3C2=O)NC(=O)/C(C)=C\C=C\[C@H](C)[C@H](O)[C@@H](C)[C@@H](O)[C@@H](C)[C@H](OC(C)=O)[C@@H]1C` [RIF, Rifampin], for which the minimum inhibitory concentration (MIC) in assay [1] (setting [5]) is under 0.5 µg/mL; in assay [2] (setting [7]), over 4 µg/mL; in assay [3] (setting [9]), 0.5 to 1 µg/mL (≈ 0.608 to 1.22 µM).

Take `[H]/N=C(/N)N[C@H]1[C@H](O)[C@@H](O)[C@H](O[C@@H]2O[C@@H](C)[C@](O)(C=O)[C@H]2O[C@@H]2O[C@@H](CO)[C@H](O)[C@@H](O)[C@@H]2NC)[C@@H](N/C(N)=N\[H])[C@@H]1O` [STR, Streptomycin]: the MIC in assay [1] (setting [5]), in assay [2] (setting [7]) and in assay [3] (setting [9]) was under 1000 µg/mL each time.

For `CO[C@@]1(NC(=O)C2SC(=C(C(N)=O)C(=O)O)S2)C(=O)N2C(C(=O)O)=C(CSc3nnnn3C)CS[C@@H]21` (stereo partly shown) [TANS, Cefotetan], the MIC in assay [1] (setting [4]), in assay [2] (setting [6]) and in assay [3] (setting [8]) was over 64 µg/mL throughout.

On to `CN(C)[C@@H]1C(O)=C(C(N)=O)C(=O)[C@@]2(O)C(O)=C3C(=O)c4c(O)cccc4[C@@](C)(O)[C@H]3C[C@@H]12` [TET, Tetracycline], for which the minimal inhibitory concentration (MIC) is 1 µg/mL (≈ 2.25 µM) in assay [1] (setting [4]); under 2 µg/mL in assay [1] (setting [5]); 0.375 µg/mL (≈ 0.844 µM) in assay [2] (setting [6]); under 2 µg/mL in assay [2] (setting [7]); over 8 µg/mL in assay [3] (setting [8]); over 16 µg/mL in assay [3] (setting [9]).

Take Amoxicillin/Clavulanic acid [AUG]: in assay [3] (MM33, ANO2 plate), the minimum inhibitory concentration (MIC) is 4/2.

On to Ampicillin/Sulbactam [A/S], for which the minimal inhibitory concentration (MIC) in assay [3] (MM33, ANO2 plate) is listed as 4/2.

On to Gentamicin, for which the MIC in assay [1] (L. rhamnosus GG, GPN3F plate) was under 2 µg/mL; in assay [2] (GPN3F plate) it was 2 to 4 µg/mL; in assay [3] (MM33, GPN3F plate), under 2 µg/mL.

On to Oxacillin + 2% NaCl [OXA+], for which the MIC in assay [1] (L. rhamnosus GG, GPN3F plate) is 0.25 to 0.5 µg/mL; in assay [2] (GPN3F plate), 1 µg/mL; in assay [3] (MM33, GPN3F plate), 2 µg/mL.

Turning to Penicillin, the minimal inhibitory concentration (MIC) was 0.5 µg/mL in assay [1] (L. rhamnosus GG, ANO2 plate); 0.5 µg/mL in assay [1] (L. rhamnosus GG, GPN3F plate); 0.5 µg/mL in assay [2] (ANO2 plate); 0.25 to 0.5 µg/mL in assay [2] (GPN3F plate); 1 µg/mL in assay [3] (MM33, ANO2 plate); 0.5 µg/mL in assay [3] (MM33, GPN3F plate).

Piperacillin/Tazobactam [P/T]: the MIC is 1/4 in assay [1] (L. rhamnosus GG, ANO2 plate); 2/4 in assay [2] (ANO2 plate); 8/4 in assay [3] (MM33, ANO2 plate).

Quinupristin/Dalfopristin [SYN]: the minimal inhibitory concentration (MIC) is 1 to 2 µg/mL in assay [1] (L. rhamnosus GG, GPN3F plate); 4 µg/mL in assay [2] (GPN3F plate); 1 µg/mL in assay [3] (MM33, GPN3F plate).

Regarding Trimethoprim/Sulfamethoxazole [SXT], the minimal inhibitory concentration (MIC) in assay [1] (L. rhamnosus GG, GPN3F plate) is >4/76; in assay [2] (GPN3F plate), >4/76; in assay [3] (MM33, GPN3F plate), >4/76.
